Measured values published in patent US7671085B2, “Non-steroidal farnesoid X receptor modulators and methods for the use thereof” (The Salk Institute for Biological Studies, priority 2002, dated 2010).
Entries after “also recorded” stand apart in the source; their conditions may differ.

Key:
[1] = test system: FXR target genes SHP, MRP-2, BSEP and PLTP; test: Northern blot of FXR target genes in HEPG2-FXR cells; type: cell-based; conditions: for induction of FXR target genes, in words: SHP, MRP-2, BSEP, PLTP; for concentration for maximal activation of FXR target genes: overnight treatment
Experimental: HepG2 or HT29-derived cell lines were typically cultured in medium containing superstripped FBS for 24 hr before the addition of a ligand or DMSO (vehicle) for an additional 24-48 hr. Total RNA was isolated using TRIzol reagent and was resolved (10 μg/lane) on a 1% agarose, 2.2 M formaldehyde gel, transferred to a nylon membrane (Hybond N^+; Amersham Biosciences, Inc.), and cross-linked to the membrane with UV light.
cDNA probes were radiolabeled with [α-^32P]dCTP using the highprime labeling kit (Amersham Biosciences, Inc.). Membranes were hybridized using the QuikHyb hybridization solution (Stratagene, La Jolla, Calif.) according to the manufacturer's protocol. Blots were normalized for variations of RNA loading by hybridization to a control probe, either, 18 S ribosomal cDNA, or the ribosomal protein 36B4. The RNA levels were quantitated using a PhosphorImager (ImageQuant software; Molecular Dynamics, Inc., Sunnyvale, Calif.) in addition to being exposed to X-ray film.
Total RNA was isolated and the expression of the FXR target genes SHP, MRP-2, BSEP and PLTP was measured by Northern blot analysis. […]

FXR = target: T1, FXR (Homo sapiens, UniProt Q96RI1); test: cell-based FXR transcription assay, FXR responsive promoter linked to luciferase reporter; conditions: for RE^a: cell-based FXR reporter assay, footnote a not given; for FXR activation, in words: cell-based reporter assay, SAR discussion
T1 construct: using a full length FXR on a natural response element; expressed in transfected cells
T1 sequence (Q96RI1 1-486): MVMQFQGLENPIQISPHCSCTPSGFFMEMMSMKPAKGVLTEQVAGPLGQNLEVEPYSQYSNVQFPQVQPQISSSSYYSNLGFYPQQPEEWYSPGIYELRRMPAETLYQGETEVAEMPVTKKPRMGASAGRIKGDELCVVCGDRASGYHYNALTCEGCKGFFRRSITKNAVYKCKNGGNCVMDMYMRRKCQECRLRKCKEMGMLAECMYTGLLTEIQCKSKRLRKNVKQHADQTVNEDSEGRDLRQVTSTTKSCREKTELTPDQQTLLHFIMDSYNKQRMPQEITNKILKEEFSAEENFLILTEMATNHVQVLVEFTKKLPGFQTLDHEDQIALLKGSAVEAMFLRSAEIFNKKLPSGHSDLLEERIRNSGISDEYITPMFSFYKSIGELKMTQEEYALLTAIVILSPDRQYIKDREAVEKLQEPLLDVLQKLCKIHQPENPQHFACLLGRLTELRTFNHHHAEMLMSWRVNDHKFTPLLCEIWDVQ
Method in brief: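 Cells co-transfected with full-length FXR and a luciferase reporter driven by a natural response element on a minimal promoter. Compound exposure ≈10 μM for 18 h before washing and luciferase read-out, in 384-well format, with CDCA as reference activator. EC50 derived from transcriptional activity.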

mouse FXR and human RXR = target: T2, mouse FXR and human RXR (Mus musculus, UniProt Q60641); test: CV-1 transient transfection reporter gene assay, TK minimal promoter with ECRE or ER-8 FXRE; type: cell-based; conditions: CV-1 cells; for concentration at which maximal activity is achieved: ECRE and ER-8 reporters; for activation of ECRE FXRE reporter: six copies of ECRE, TK minimal promoter; for activation of ER-8 FXRE reporter: two copies of ER-8, TK minimal promoter
T2 construct: expressed in transfected cells; host or cells: CV-1 cells
T2 sequence (Q60641 1-488): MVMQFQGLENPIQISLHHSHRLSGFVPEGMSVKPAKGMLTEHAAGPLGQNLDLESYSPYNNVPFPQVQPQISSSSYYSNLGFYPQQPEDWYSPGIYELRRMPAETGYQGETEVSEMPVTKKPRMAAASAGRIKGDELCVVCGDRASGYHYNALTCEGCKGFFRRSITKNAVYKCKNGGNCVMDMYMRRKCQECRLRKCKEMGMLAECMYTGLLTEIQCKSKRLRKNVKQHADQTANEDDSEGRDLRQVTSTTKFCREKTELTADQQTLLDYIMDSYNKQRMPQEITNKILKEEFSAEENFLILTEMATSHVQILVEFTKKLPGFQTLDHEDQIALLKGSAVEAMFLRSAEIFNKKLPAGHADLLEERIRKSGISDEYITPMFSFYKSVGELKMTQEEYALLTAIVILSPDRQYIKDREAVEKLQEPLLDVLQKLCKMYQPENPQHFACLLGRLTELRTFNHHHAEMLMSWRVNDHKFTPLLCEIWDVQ
T2 sequence (P19793 1-462 partner): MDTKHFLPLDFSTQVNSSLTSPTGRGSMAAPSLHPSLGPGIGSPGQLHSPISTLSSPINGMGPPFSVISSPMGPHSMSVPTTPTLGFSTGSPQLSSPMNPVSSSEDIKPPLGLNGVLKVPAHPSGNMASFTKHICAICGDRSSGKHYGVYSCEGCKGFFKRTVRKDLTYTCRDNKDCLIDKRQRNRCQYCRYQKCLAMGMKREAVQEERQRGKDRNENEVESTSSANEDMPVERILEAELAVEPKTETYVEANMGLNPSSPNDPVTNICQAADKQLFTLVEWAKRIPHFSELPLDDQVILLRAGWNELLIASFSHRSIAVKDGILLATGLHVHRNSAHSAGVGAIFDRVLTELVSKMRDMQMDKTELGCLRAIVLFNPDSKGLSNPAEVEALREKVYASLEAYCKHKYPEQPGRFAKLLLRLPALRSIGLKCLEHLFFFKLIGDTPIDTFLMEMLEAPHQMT
Experimental: The ability of these compounds to activate the receptor in a number of different cell-based reporter gene assays was then determined. […] CV-1 cells were transiently transfected with an expression plasmid for mouse FXR and human RXR with a thymidine kinase (TK) minimal promoter reporter vector containing either no copies or six copies of the ecdysone response element (ECRE), a well-characterized FXR response element (FXRE). In addition, two copies of the recently identified FXRE everted repeat separated by 8 nucleotides (ER-8) was also studied (see, for example, Laffitte et al. (2000). Identification of the DNA binding specificity and potential target genes for the farnesoid X-activated receptor. J Biol Chem. 275(14), 10638-47; Kast et al. (2002). Regulation of multidrug resistance-associated protein 2 (ABCC2) by the nuclear receptors pregnane X receptor, farnesoid X-activated receptor, and constitutive androstane receptor. J Biol Chem. 277(4), 2908-15).

Row | RE^a (FXR) | FXR activation, in words (FXR) | concentration at which maximal activity is achieved (mouse FXR and human RXR) [µM] | activation of ECRE FXRE reporter (mouse FXR and human RXR) [fold] | activation of ER-8 FXRE reporter (mouse FXR and human RXR) [fold] | SMILES | induction of FXR target genes, in words ([1]; listed as fexaramine) | concentration for maximal activation of FXR target genes [1] [µM] | induction of FXR target genes, in words [1]
1 | 1.72 | excellent activity | 1 | 100 | 4 | COC(=O)/C=C/c1cccc(N(Cc2ccc(-c3ccc(N(C)C)cc3)cc2)C(=O)C2CCCCC2)c1 [Compound 259] | most effective inducer of target genes; also recorded: matched GW4064 induced activation of the BSEP and MRP-2 genes | 10 | –
2 | 1.90 | excellent activity | 1 | 100 | 4 | COC(=O)/C=C/c1cccc(N(Cc2ccc(-c3ccc4c(c3)OCO4)cc2)C(=O)C2CCCCC2)c1 [Compound 244] | – | 10 | strong induction

Row | SMILES | RE^a (FXR) | FXR activation, in words (FXR) | concentration at which maximal activity is achieved (mouse FXR and human RXR) [µM] | activation of ECRE FXRE reporter (mouse FXR and human RXR) [fold] | activation of ER-8 FXRE reporter (mouse FXR and human RXR) [fold] | induction of FXR target genes, in words ([1]; listed as fexaramine) | concentration for maximal activation of FXR target genes [1] [µM] | induction of FXR target genes, in words [1]
3 | COC(=O)C=Cc1cccc(N(Cc2ccc(C=Cc3ccccc3)cc2)C(=O)C2CCCCC2)c1 [Compound 121] | 1.55 | excellent activity; also recorded: among the most active | 1 | 100 | 4 | – | 10 | strong induction
